# Data published in ChEMBL document CHEMBL3774317, “Design and synthesis of novel tamoxifen analogues that avoid CYP2D6 metabolism” (Eur J Med Chem, 2016).
# Legend:
# T47D = test: Cytotoxicity against human T47D cells assessed as growth inhibition after 48 hrs by SRB assay; format: functional
# A549 = test: Cytotoxicity against human A549 cells assessed as growth inhibition after 48 hrs by SRB assay; format: functional; conditions: A549, 48 h
# MDA-MB-435 = test: Cytotoxicity against human MDA-MB-435 cells assessed as growth inhibition after 48 hrs by SRB assay; format: functional; conditions: MDA-MB-435, 48 h; for CC50: read-out: LC50 (the source's name)
# K562 = test: Cytotoxicity against human K562 cells assessed as growth inhibition after 48 hrs by SRB assay; format: functional; conditions: K562, 48 h
# [1] = Cytotoxicity against human UO31 cells assessed as growth inhibition after 48 hrs by SRB assay; format: functional; conditions: UO-31, 48 h; for CC50: read-out: LC50 (the source's name)
# [2] = Cytotoxicity against human OVCAR4 cells assessed as growth inhibition after 48 hrs by SRB assay; format: functional; conditions: OVCAR-4, 48 h
# HT-29 = test: Cytotoxicity against human HT-29 cells assessed as growth inhibition after 48 hrs by SRB assay; format: functional; conditions: HT-29, 48 h; for CC50: read-out: LC50 (the source's name)
# [3] = Cytotoxicity against human HCC2998 cells assessed as growth inhibition after 48 hrs by SRB assay; format: functional; conditions: HCC 2998, 48 h; for CC50: read-out: LC50 (the source's name)
# SK-MEL-28 = test: Cytotoxicity against human SK-MEL-28 cells assessed as growth inhibition after 48 hrs by SRB assay; format: functional; conditions: SK-MEL-28, 48 h
# [4] = Cytotoxicity against human PC3 cells assessed as growth inhibition after 48 hrs by SRB assay; format: functional; conditions: PC-3, 48 h
# [5] = Cytotoxicity against human HCT116 cells assessed as growth inhibition after 48 hrs by SRB assay; format: functional; conditions: HCT-116, 48 h
# ACHN = test: Cytotoxicity against human ACHN cells assessed as growth inhibition after 48 hrs by SRB assay; format: functional
# [6] = Cytotoxicity against human SF295 cells assessed as growth inhibition after 48 hrs by SRB assay; format: functional; conditions: SF-295, 48 h
# [7] = Cytotoxicity against human COLO205 cells assessed as growth inhibition after 48 hrs by SRB assay; format: functional; conditions: COLO 205, 48 h; for CC50: read-out: LC50 (the source's name)
# NCI-H460 = test: Cytotoxicity against human NCI-H460 cells assessed as growth inhibition after 48 hrs by SRB assay; format: functional; conditions: NCI-H460, 48 h; for CC50: read-out: LC50 (the source's name)
# KM12 = test: Cytotoxicity against human KM12 cells assessed as growth inhibition after 48 hrs by SRB assay; format: functional; conditions: KM12, 48 h
# [8] = Cytotoxicity against human DU145 cells assessed as growth inhibition after 48 hrs by SRB assay; format: functional; conditions: DU-145, 48 h
# [9] = Cytotoxicity against human SF539 cells assessed as growth inhibition after 48 hrs by SRB assay; format: functional; conditions: SF-539, 48 h
# [10] = Cytotoxicity against human HL-60(TB) cells assessed as growth inhibition after 48 hrs by SRB assay; format: functional; conditions: HL-60, 48 h; for CC50: read-out: LC50 (the source's name)
# [11] = Cytotoxicity against human OVCAR3 cells assessed as growth inhibition after 48 hrs by SRB assay; format: functional; conditions: OVCAR-3, 48 h
# Estrogen receptor = target: T1, Estrogen receptor (Homo sapiens, UniProt P03372)
# T1 sequence (P03372 whole entry): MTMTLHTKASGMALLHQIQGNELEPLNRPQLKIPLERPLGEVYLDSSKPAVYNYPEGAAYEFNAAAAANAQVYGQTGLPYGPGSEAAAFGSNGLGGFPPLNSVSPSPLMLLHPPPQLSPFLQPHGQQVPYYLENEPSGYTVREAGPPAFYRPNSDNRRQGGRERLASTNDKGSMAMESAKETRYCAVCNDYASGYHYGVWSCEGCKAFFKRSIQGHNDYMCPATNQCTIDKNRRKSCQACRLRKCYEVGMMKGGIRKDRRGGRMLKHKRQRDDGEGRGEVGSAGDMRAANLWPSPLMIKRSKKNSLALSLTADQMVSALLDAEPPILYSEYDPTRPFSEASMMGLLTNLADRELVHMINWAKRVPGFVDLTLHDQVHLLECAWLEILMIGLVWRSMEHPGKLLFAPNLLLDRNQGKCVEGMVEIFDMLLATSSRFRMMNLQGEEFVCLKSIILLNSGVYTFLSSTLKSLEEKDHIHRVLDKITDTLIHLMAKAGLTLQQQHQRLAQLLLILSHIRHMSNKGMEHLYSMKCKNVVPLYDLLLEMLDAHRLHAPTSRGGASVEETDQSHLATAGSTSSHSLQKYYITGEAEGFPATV
# Description: Displacement of [3H]-E2 from human ER-alpha incubated for 16 to 20 hrs by liquid scintillation counting analysis
# NCI-H322M = test: Cytotoxicity against human NCI-H322M cells assessed as growth inhibition after 48 hrs by SRB assay; format: functional; conditions: for CC50: read-out: LC50 (the source's name)
# SN12C = test: Cytotoxicity against human SN12C cells assessed as growth inhibition after 48 hrs by SRB assay; format: functional
# [12] = Cytotoxicity against human RPMI8226 cells assessed as growth inhibition after 48 hrs by SRB assay; format: functional; conditions: RPMI-8226, 48 h
# SK-MEL-5 = test: Cytotoxicity against human SK-MEL-5 cells assessed as growth inhibition after 48 hrs by SRB assay; format: functional; conditions: SK-MEL-5, 48 h; for CC50: read-out: LC50 (the source's name)
# MDA-MB-231 = test: Cytotoxicity against human MDA-MB-231 cells assessed as growth inhibition after 48 hrs by SRB assay; format: functional; conditions: MDA-MB-231, 48 h
# [13] = Cytotoxicity against human HOP92 cells assessed as growth inhibition after 48 hrs by SRB assay; format: functional; conditions: HOP-92, 48 h; for CC50: read-out: LC50 (the source's name)
smiles,measurement,setting,value
C/C(=C(/c1ccc(O)cc1)c1ccc(OCCN2CCCC2)cc1)c1ccccc1,GI50,T47D,0.716 µM
same,LC50,T47D,53.7 µM
same,TGI,T47D,7.93 µM
same,GI50,A549,3.53 µM
same,LC50,A549,35 µM
same,TGI,A549,11 µM
same,GI50,MDA-MB-435,1.88 µM
same,TGI,MDA-MB-435,4.4 µM
same,CC50,MDA-MB-435,10.8 µM
same,GI50,K562,1.81 µM
same,LC50,K562,23.6 µM
same,TGI,K562,4.77 µM
same,GI50,[1],1.87 µM
same,TGI,[1],5.72 µM
same,CC50,[1],23.7 µM
same,GI50,[2],4.7 µM
same,LC50,[2],43.3 µM
same,TGI,[2],17.5 µM
same,GI50,HT-29,1.35 µM
same,TGI,HT-29,3.2 µM
same,CC50,HT-29,7.58 µM
same,GI50,[3],2.34 µM
same,TGI,[3],6.18 µM
same,CC50,[3],28.5 µM
same,GI50,SK-MEL-28,1.65 µM
same,LC50 (concentration killing 50% of starting cells),SK-MEL-28,7.05 µM
same,TGI,SK-MEL-28,3.41 µM
same,GI50,[4],4.28 µM
same,LC50,[4],40.1 µM
same,TGI,[4],14.7 µM
same,GI50,[5],2.92 µM
same,LC50,[5],32.6 µM
same,TGI,[5],10.1 µM
same,GI50,ACHN,4.28 µM
same,LC50 (concentration causing 50% net cell kill),ACHN,44.1 µM
same,TGI,ACHN,16.3 µM
same,GI50,[6],1.95 µM
same,LC50 (concentration killing 50% of cells),[6],8.99 µM
same,TGI,[6],4.19 µM
same,GI50,[7],1.7 µM
same,TGI,[7],3.38 µM
same,CC50,[7],6.73 µM
same,GI50,NCI-H460,2.36 µM
same,TGI,NCI-H460,5.38 µM
same,CC50,NCI-H460,16.9 µM
same,GI50,KM12,3.51 µM
same,LC50 (concentration giving 50% net cell kill),KM12,41.5 µM
same,TGI,KM12,13.2 µM
same,GI50,[8],9.72 µM
same,LC50,[8],46.3 µM
same,TGI,[8],21.4 µM
same,GI50,[9],1.81 µM
same,LC50,[9],7.79 µM
same,TGI,[9],3.76 µM
same,GI50,[10],2.04 µM
same,TGI,[10],4.97 µM
same,CC50,[10],23.4 µM
same,GI50,[11],5.66 µM
same,LC50,[11],42.5 µM
same,TGI,[11],18.1 µM
same,IC50,Estrogen receptor,0.0008 µM
same,GI50,NCI-H322M,5.12 µM
same,TGI,NCI-H322M,18.6 µM
same,CC50,NCI-H322M,47 µM
same,GI50,SN12C,9.17 µM
same,LC50 (concentration killing 50% of cells),SN12C,68.7 µM
same,TGI,SN12C,25.7 µM
same,GI50,[12],2.4 µM
same,LC50,[12],65 µM
same,TGI,[12],6.72 µM
same,GI50,SK-MEL-5,1.72 µM
same,TGI,SK-MEL-5,3.1 µM
same,CC50,SK-MEL-5,5.59 µM
same,GI50,MDA-MB-231,3.51 µM
same,LC50,MDA-MB-231,45.7 µM
same,TGI,MDA-MB-231,8.4 µM
same,GI50,[13],2.24 µM
same,TGI,[13],7.34 µM
same,CC50,[13],31.2 µM
CCCCCCCCCC(=O)Oc1ccc(/C(=C(/C)c2ccccc2)c2ccc(OCCN3CCCC3)cc2)cc1,LC50,T47D,39.9 µM
same,TGI,T47D,14.4 µM
same,GI50,A549,9.35 µM
same,LC50,A549,33.4 µM
same,TGI,A549,17.7 µM
same,GI50,MDA-MB-435,7.47 µM
same,TGI,MDA-MB-435,14.1 µM
same,CC50,MDA-MB-435,26.5 µM
same,LC50,K562,36.2 µM
same,TGI,K562,16.2 µM
same,GI50,[1],6.72 µM
same,TGI,[1],14.2 µM
same,CC50,[1],29.8 µM
same,GI50,[2],7.39 µM
same,LC50,[2],29.9 µM
same,TGI,[2],14.9 µM
same,TGI,HT-29,12.3 µM
same,CC50,HT-29,27 µM
same,GI50,[3],8.66 µM
same,TGI,[3],17.2 µM
same,CC50,[3],34.3 µM
same,LC50 (concentration killing 50% of starting cells),SK-MEL-28,28.6 µM
same,TGI,SK-MEL-28,15.3 µM
same,GI50,[4],8.28 µM
same,LC50,[4],30 µM
same,TGI,[4],15.7 µM
same,GI50,[5],8.01 µM
same,LC50,[5],30.6 µM
same,TGI,[5],15.7 µM
same,GI50,ACHN,8.16 µM
same,LC50 (concentration causing 50% net cell kill),ACHN,29.3 µM
same,TGI,ACHN,15.5 µM
same,GI50,[6],7.93 µM
same,LC50 (concentration killing 50% of cells),[6],28.6 µM
same,TGI,[6],15.1 µM
same,TGI,[7],14.7 µM
same,CC50,[7],29.1 µM
same,GI50,NCI-H460,8.46 µM
same,TGI,NCI-H460,15.9 µM
same,CC50,NCI-H460,29.9 µM
same,GI50,KM12,8.79 µM
same,LC50 (concentration giving 50% net cell kill),KM12,31.7 µM
same,TGI,KM12,16.7 µM
same,GI50,[8],8 µM
same,LC50,[8],27.5 µM
same,TGI,[8],14.8 µM
same,GI50,[9],8.7 µM
same,LC50,[9],32.9 µM
same,TGI,[9],16.9 µM
same,GI50,[10],9.24 µM
same,TGI,[10],18.7 µM
same,CC50,[10],37.8 µM
same,GI50,[11],8.18 µM
same,LC50,[11],31.6 µM
same,TGI,[11],16.1 µM
same,IC50,Estrogen receptor,0.0484 µM
same,GI50,NCI-H322M,8.04 µM
same,TGI,NCI-H322M,15.7 µM
same,CC50,NCI-H322M,30.7 µM
same,GI50,SN12C,9.15 µM
same,LC50 (concentration killing 50% of cells),SN12C,35.1 µM
same,TGI,SN12C,17.9 µM
same,GI50,[12],9.13 µM
same,LC50,[12],48.5 µM
same,TGI,[12],21 µM
same,GI50,SK-MEL-5,8.13 µM
same,TGI,SK-MEL-5,14.9 µM
same,CC50,SK-MEL-5,27.3 µM
same,GI50,MDA-MB-231,1.02 µM
same,LC50,MDA-MB-231,39.9 µM
same,TGI,MDA-MB-231,20.2 µM
same,GI50,[13],7.01 µM
same,TGI,[13],15.4 µM
same,CC50,[13],33.8 µM
